Results reported in US11654096B2 (L'OREAL, priority 2017, dated 2023).
Values joined by “and” are separate entries in the source; they are usually repeats but may differ in a detail not shown here. Identical values can stand only once.

Tests used:
Assay type in all cases: cell-based
[1] = tested on: normal human epidermal keratinocytes (NHEKs); experiment: Neosynthesis of total GAGs by NHEKs, [3H]-glucosamine incorporation; conditions: for % Control / Mean (cpm) / [3H]-glucosamine (cpm): total GAGs, NHEKs; for [3H]-glucosamine (cpm): single replicates
Protocol: (§1) The effects of the compounds on the neosynthesis of total and sulfated glycosaminoglycans (GAGs) were studied on two cell models, normal human epidermal keratinocytes (NHEKs) and normal human dermal fibroblasts (NHDFs). The effects of these compounds were evaluated by measuring: • the incorporation of [3H]-glucosamine into the total GAGs neosynthesized by NHEKs and by NHDFs, • the incorporation of [35S]-sulfate into the sulfated GAGs neosynthesized by NHEKs and by NHDFs.
(§2) The keratinocytes were seeded into wells and cultured in culture medium for 24 hours. The medium was then replaced with culture medium containing or not containing (control) the compounds to be tested or the reference (4-nitrophenyl β-D-xylopyranoside at 300 μM), then the cells were incubated for 72 hours with the addition of the [3H]-glucosamine radioactive label (total GAGs) or of the [35S]-sulfate radioactive label (sulfated GAGs) for the final 24 hours of incubation.
(§3) At the end of the incubation, the glycosaminoglycans were extracted from the cells with a chaotropic buffer. The GAGs were then purified by ion exchange chromatography: adsorption of the anionic molecules on Q-Sepharose beads and desorption of the molecules of low or medium anionic nature, with a suitable solution.
(§4) The radioactivity incorporated into the molecules left on the support (GAGs, predominantly) was measured by liquid scintillation.
(§5) All the experimental conditions were performed in n=3.
(§6) The inter-group comparisons were performed using Student's non-paired two-sided t-test. The statistical analyses can be interpreted if n≥5; however, for n<5, the data calculated are provided only by way of indication.

[2] = tested on: normal human dermal fibroblasts (NHDFs); experiment: Neosynthesis of sulfated GAGs by NHDFs, [35S]-sulfate incorporation; conditions: for % Control / Mean (cpm) / [35S]-Sulfate (cpm): sulfated GAGs, NHDFs; for [35S]-Sulfate (cpm): single replicates
Protocol: as §1
(§7) The fibroblasts were seeded into wells and cultured in culture medium for 24 hours. The medium was then replaced with culture medium containing or not containing (controt) the compounds to be tested or the reference (TGF-β at 10 ng/ml), then the cells were incubated for 72 hours with the addition of the [35S]-sulfate radioactive label (sulfated GAGs) or of the [3H]-glucosamine radioactive label (total GAGs) for the final 24 hours of incubation.
as §3, §4, §5, §6

[3] = tested on: normal human epidermal keratinocytes (NHEKs); experiment: Neosynthesis of sulfated GAGs by NHEKs, [35S]-sulfate incorporation; conditions: for % Control / Mean (cpm) / [35S]-Sulfate (cpm): sulfated GAGs, NHEKs; for [35S]-Sulfate (cpm): single replicates
Protocol: as §1, §2, §3, §4, §5, §6

[4] = tested on: normal human dermal fibroblasts (NHDFs); experiment: Neosynthesis of total GAGs by NHDFs, [3H]-glucosamine incorporation; conditions: for % Control / Mean (cpm) / [3H]-glucosamine (cpm): total GAGs, NHDFs; for [3H]-glucosamine (cpm): single replicates
Protocol: as §1, §7, §3, §4, §5, §6

Oc1ccc(C=Cc2cc(O)cc(O)c2)cc1 [Resveratrol]
effect on the neosynthesis of the total GAGs by the NHEKs (in words) ([1]; tested at 10 and 100 μM): inhibited, in a concentration-dependent manner
% Control ([1]; campaign 1, 10 μM): 64%
Mean (cpm) ([1]; campaign 1, 10 μM): 8328 cpm
[3H]-glucosamine (cpm) ([1]; campaign 1, 10 μM): 7566 cpm and 8537 cpm and 8880 cpm
% Control ([1]; campaign 1, 100 μM): 13%
Mean (cpm) ([1]; campaign 1, 100 μM): 1743 cpm
[3H]-glucosamine (cpm) ([1]; campaign 1, 100 μM): 1509 cpm and 1754 cpm and 1967 cpm
% Control ([1]; campaign 2, 1 μM): 113%
Mean (cpm) ([1]; campaign 2, 1 μM): 9628 cpm
[3H]-glucosamine (cpm) ([1]; campaign 2, 1 μM): 10734 cpm and 10012 cpm and 8137 cpm
% Control ([1]; campaign 2, 10 μM): 86%
Mean (cpm) ([1]; campaign 2, 10 μM): 7347 cpm
[3H]-glucosamine (cpm) ([1]; campaign 2, 10 μM): 6772 cpm and 7143 cpm and 8126 cpm
% Control ([2]; campaign 1, 10 μM): 93%
Mean (cpm) ([2]; campaign 1, 10 μM): 1527 cpm
[35S]-Sulfate (cpm) ([2]; campaign 1, 10 μM): 1506 cpm and 1556 cpm and 1519 cpm
% Control ([2]; campaign 1, 100 μM): 62%
Mean (cpm) ([2]; campaign 1, 100 μM): 1019 cpm
[35S]-Sulfate (cpm) ([2]; campaign 1, 100 μM): 967 cpm and 1045 cpm and 1046 cpm
% Control ([2]; campaign 2, 10 μM): 101%
Mean (cpm) ([2]; campaign 2, 10 μM): 571 cpm
[35S]-Sulfate (cpm) ([2]; campaign 2, 10 μM): 613 cpm and 513 cpm and 586 cpm
% Control ([2]; campaign 2, 100 μM): 54%
Mean (cpm) ([2]; campaign 2, 100 μM): 305 cpm
[35S]-Sulfate (cpm) ([2]; campaign 2, 100 μM): 355 cpm and 283 cpm and 276 cpm
effect on the neosynthesis of the sulfated GAGs by the NHDFs (in words) ([2]; tested at 10 and 100 μM): overall inhibited
% Control ([3]; campaign 1, 10 μM): 77%
Mean (cpm) ([3]; campaign 1, 10 μM): 5254 cpm
[35S]-Sulfate (cpm) ([3]; campaign 1, 10 μM): 5238 cpm and 5506 cpm and 5018 cpm
% Control ([3]; campaign 1, 100 μM): 27%
Mean (cpm) ([3]; campaign 1, 100 μM): 1802 cpm
[35S]-Sulfate (cpm) ([3]; campaign 1, 100 μM): 1836 cpm and 1725 cpm and 1845 cpm
Mean (cpm) ([3]; campaign 2, 1 μM): 6530 cpm
[35S]-Sulfate (cpm) ([3]; campaign 2, 1 μM): 6885 cpm and 6817 cpm and 5888 cpm
% Control ([3]; campaign 2, 10 μM): 94%
Mean (cpm) ([3]; campaign 2, 10 μM): 4973 cpm
[35S]-Sulfate (cpm) ([3]; campaign 2, 10 μM): 5137 cpm and 4981 cpm and 4802 cpm
effect on the neosynthesis of the sulfated GAGs by the NHEKs (in words) ([3]; tested at 10 and 100 μM): inhibited, in a concentration-dependent manner
effect on the neosynthesis of the total GAGs by the NHDFs (in words) ([4]; tested at 10 and 100 μM): overall inhibited
% Control ([4]; campaign 2, 10 μM): 98%
Mean (cpm) ([4]; campaign 2, 10 μM): 1534 cpm
[3H]-glucosamine (cpm) ([4]; campaign 2, 10 μM): 1439 cpm and 1533 cpm and 1630 cpm
% Control ([4]; campaign 2, 100 μM): 86%
Mean (cpm) ([4]; campaign 2, 100 μM): 1339 cpm
[3H]-glucosamine (cpm) ([4]; campaign 2, 100 μM): 1253 cpm and 1360 cpm and 1404 cpm
